Source: patent publication US20090042993A1, “IDENTIFICATION OF NOVEL POST-TRANSLATIONAL PROTEIN MODIFICATIONS” (priority 2007, published 2009)
Peptide text beside a SMILES is read from it. * marks the point of attachment. Cbz = O=C(OCc1ccccc1)*

Columns and labels:
BACE1 = BACE1 steady-state levels by Western blot in stably transfected CHO cells; type: cell-based, human; conditions: CHO cells, proteasome inhibitor for 10 hours (MG-132 5 μM, lactacystin 10 μM)
Method: Chinese Hamster Ovary (CHO) cells were grown in DMEM (Gibco BRL—Invitrogen, Carlsbad, Calif.) supplemented with 10% fetal bovine serum (FBS) and penicillin/streptomycin (Mediatech, Inc., Herndon, Va.) as described before (Puglielli et al., 2001, Nat. Cell Biol. 3: 905-912; Puglielli et al., 2003, J. Biol. Chem. 278: 19777-19783; Costantini et al., 2005, Biochem. J. 391: 59-67; Costantini et al., 2006, EMBO J. 25: 1997-2006). Cells were maintained in a humidified atmosphere with 5% CO2. For ceramide treatment, C6-ceramide (also simply called ceramide herein) was administered at the final concentration of 10 μM; treatment was started when cells were ˜30% confluent and carried out for 4 days, unless specified otherwise. Treatment with proteasome inhibitors MG-132 (5 μM) and lactacystin (10 μM) was done for 10 hours, as described earlier (Qing et al., 2004, FASEB J. 18: 1571-1573).
Cell lysates were prepared in GTIP buffer (100 mM Tris-pH 7.6, 20 mM EDTA, 1.5 M NaCl) with 1% Triton X-100 (Roche, Basel, Switzerland), 0.25% NP40 (Roche), and a protease inhibitor cocktail (Roche) as described before (Puglielli et al., 2003, J. Biol. Chem. 278: 19777-19783; Costantini et al., 2005, Biochem. J. 391: 59-67). Briefly, cell monolayers were washed twice in PBS, scraped, transferred into eppendorf tubes, and centrifuged at 8,000 rpm for 5 min in a table-top centrifuge. Cell pellets were then lysed in ice for 30 min with the buffer indicated above, and centrifuged again at 14,000 rpm prior to the recollection of the protein extracts. Proteins were quantitated with the BCA Protein Assay (Pierce, Rockford, Ill.) following the manufacturer's instructions.
For the immunoprecipitation of BACE1, cell lysates were pre-cleared with BioMag Protein A (Polysciences, Inc., Warrington, Pa.); beads were used at the concentration of 15 μl of the slurry per sample and separated with a magnetic holder. BACE1 was then immunoprecipitated with anti-BACE1 antibodies overnight and recovered with BioMag Protein A as above. The immunoprecipitate-bead complexes were washed 3 times in PBS and boiled for 10 min in SDS sample buffer (Invitrogen) with β-mercaptoethanol. Beads were then separated and the samples were analyzed by reducing SDS-PAGE.
Western blotting was performed on 10% Bis-Tris, 4-12% Bis-Tris, or 7% Tris-Acetate SDS-PAGE systems (NuPAGE; Invitrogen) as described (Puglielli et al., 2001, Nat. Cell Biol. 3: 905-912; Puglielli et al., 2003, J. Biol. Chem. 278: 19777-19783; Costantini et al., 2005, Biochem. J. 391: 59-67; Costantini et al., 2006, EMBO J. 25: 1997-2006). The following antibodies were used: anti-BACE1 N-terminal (monoclonal antibody; R&D Systems, Minneapolis, Minn.); anti-BACE1 C-terminal (polyclonal antibody; Abcam, Cambridge, Mass.); anti-pro-BACE1 (polyclonal; Abcam); anti-acetylated lysine (monoclonal; Abcam); anti-calreticulin (ER marker, polyclonal; Abcam); anti-58 K Golgi/formiminotransferase cyclodeaminase (Golgi marker, polyclonal; Abcam); anti-syntaxin (Golgi marker, monoclonal; Abcam); anti-EEA1 (endosomes, monoclonal; BD Transduction Laboratories, Lexington, Ky.); anti-actin (polyclonal; Cell Signaling, Danvers, Mass.). Secondary antibodies (Amersham) were used at a 1:6000 dilution. Binding was detected by chemiluminescence (LumiGLO kit; KPL, Gaithersburg, Md.). Only a representative blot of at least three different experiments is shown throughout the paper.
FIG. 1 illustrates how BACE1 is transiently acetylated in the lumen of the ER. For this experiment, CHO cells expressing human BACE1 were treated with C6-ceramide (also simply called ceramide herein) for different periods of time. BACE1 was then immunoprecipitated and analyzed by Western blotting. FIG. 1(A): CHO cells stably expressing BACE1 were treated with ceramide for the indicated time. BACE1 was immunoprecipitated from total cell lysates, separated on a 7% Tris-Acetate NuPAGE system, and then analyzed by Western blot using either anti-BACE1 or anti-acetylated lysine antibodies. […]

[1] = target: T1, ER membrane acetyl-CoA transport activity (Cricetulus griseus, UniProt G3H231); assay: Acetyl-CoA transport assay into intact ER vesicles; type: biochemical, Chinese Hamster; conditions: ER vesicles, increasing concentrations of Coenzyme A
T1 sequence (G3H231 1-550): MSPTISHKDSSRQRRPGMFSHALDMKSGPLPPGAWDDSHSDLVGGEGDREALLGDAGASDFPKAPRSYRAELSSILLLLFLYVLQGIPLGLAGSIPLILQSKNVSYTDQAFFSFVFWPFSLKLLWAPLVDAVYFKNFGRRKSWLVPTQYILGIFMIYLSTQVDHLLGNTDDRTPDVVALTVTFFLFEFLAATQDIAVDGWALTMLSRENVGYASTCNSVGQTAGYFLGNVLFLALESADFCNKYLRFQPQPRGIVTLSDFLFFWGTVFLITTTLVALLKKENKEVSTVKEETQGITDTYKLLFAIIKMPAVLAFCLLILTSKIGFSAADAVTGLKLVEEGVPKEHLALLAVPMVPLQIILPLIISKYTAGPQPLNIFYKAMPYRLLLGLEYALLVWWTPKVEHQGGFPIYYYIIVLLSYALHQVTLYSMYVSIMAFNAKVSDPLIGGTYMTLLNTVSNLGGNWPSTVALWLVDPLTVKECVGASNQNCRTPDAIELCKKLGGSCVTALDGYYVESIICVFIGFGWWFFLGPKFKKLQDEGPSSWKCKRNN
Method: Intact vesicles from the endoplasmic reticulum (ER) and the Golgi apparatus were purified on a 10-34% Iodixanol (OptiPrep; Axis-Shield, Norway) continuous gradient as described (Puglielli et al., 2001, Nat. Cell Biol. 3: 905-912). […] Fractions enriched in ER and Golgi markers (also called ER or Golgi vesicles herein) were separated, pooled together, and resuspended in isotonic/cryogenic buffer (0.25 M sucrose and 10 mM Tris-HCl, pH 7.4) in the presence of protease inhibitors (Roche). Latency of ER and Golgi vesicles was determined with the glucose-6-phosphatase (Clairmont et al., 1992, J. Biol. Chem. 267: 3983-3900) and the sialyl-transferase (Puglielli and Hirschberg, 1999, J. Biol. Chem. 274: 35596-35600) methods, respectively. The purity of the preparation was further confirmed by assaying the above enzymatic activities, together with transport of CMP-sialic acid.
Briefly, assays were performed in 100 μl final volume (isotonic/cryogenic buffer) using 25 to 50 μg of ER/Golgi vesicles protein. […] After 5 min at 30° C., reactions were stopped by lowering the temperature to 0-4° C. and by adding 100 μl of ice-cold isotonic/cryogenic buffer (described above). […] Pellets were then dissolved in 0.6 mL of NaOH 1 N; after neutralization with 0.2 mL of 4N HCl, samples were counted by scintillation spectrometry. […]
Asterisk (*) indicates statistical significance (n=3) (P<0.0005). FIG. 5(D): transport of CMP-sialic acid into ER and Golgi intact vesicles was measured as described in (A). […] FIG. 5(E): transport of ATP into ER intact vesicles obtained from control and ceramide-treated CHO cells was measured as described in FIG. 5(A). […]
Translocation was measured as described in the Materials and Methods section. […] FIG. 10(E): transport of ATP into ER intact vesicles obtained from control and ceramide-treated CHO cells was measured as described in FIG. 10(A). […]
Results are expressed as percent of control (no CoA; white bar) and are the average±S.D. Asterisk (*) indicates statistical significance. […]

acetyl-CoA transport across the ER membrane [1] | Structure (SMILES) | steady-state levels of BACE1Ala (BACE1) | steady-state levels of BACE1WT (BACE1)
 | CC(=O)N[C@@H](CSC(=O)[C@]1([C@@H](O)C(C)C)NC(=O)[C@H](C)[C@@H]1O)C(=O)O [lactacystin] | not those of BACE1Ala | successfully increased
inhibited | CC(C)(COP(=O)(O)OP(=O)(O)OC[C@H]1O[C@@H](n2cnc3c(N)ncnc32)[C@H](O)[C@@H]1OP(=O)(O)O)[C@@H](O)C(=O)NCCC(=O)NCCS [Coenzyme A] |  | 
 | CC(C)C[C@@H](C=O)NC(=O)[C@H](CC(C)C)NC(=O)[C@H](CC(C)C)NC(=O)OCc1ccccc1 [MG-132] (Cbz-Leu-Leu-Leu-aldehyde) | not those of BACE1Ala | successfully increased
